The source made the active and inactive calls. The rule behind the calls is not given here. Starred links: 1 amine or outer side, 2 acyl side, 3 side chain; linkers in the order of their positions; H or OH if unused. Positions of bridges follow the written chain, without caps; N, C: chain ends. Non-standard residues stand in square brackets, D forms with d. Residues, ends and D or L forms follow the SMILES beside them. ξ: configuration not given here. ξαMeNle(6-ylidene) = CC(CCCC=[*:3])(N[*:1])C(=O)[*:2]; X1 = CC(C)C[C@@](CCCC=[*:3])(N[*:1])C(=O)[*:2]; X2 = NCCCC[C@@](CCCC=[*:3])(N[*:1])C(=O)[*:2]; Dip = N[C@H](C(=O)O)C(c1ccccc1)c1ccccc1; S5 = C=CCCC[C@](C)(N)C(=O)O
Columns and labels:
[1] = test system: 4T1; test: Antiproliferative activity against triple-negative mouse 4T1 cells assessed as inhibition of cell growth measured after 24 hrs by Cell Counting Kit-8 assay; type: functional, cell-based; settings: 4T1, 24 h
[2] = test system: B16-F10; test: Antiproliferative activity against mouse B16-F10 cells assessed as inhibition of cell growth measured after 24 hrs by Cell Counting Kit-8 assay; type: functional, cell-based; settings: B16-F10, 24 h
[3] = test system: B16-F10; test: Antitumor activity against mouse B16-F10 cells implanted in C57 mouse assessed as increase in infiltration of CD8 positive T cells into tumors at 1 mg, IT administered once daily for 3 consecutive days starting from day 5 post inoculation and measured after 10 days by histochemical staining based analysis; type: functional, cell-based; settings: time 10.0 day
[4] = Toxicity in 4T1 tumor bearing BALB/c mouse assessed as increase in body weight at 1 mg, IT administered once daily for 3 consecutive days starting from day 2 post inoculation; settings: in vivo, other, 72 h, time 3 day
[5] = test system: 4T1; test: Antitumor immunity against mouse 4T1 cells implanted in […] mouse assessed as release of HMGB-1 at IC75 measured after 6 hrs by Hoechst 33342 staining based confocal microscopic analysis; type: functional, cell-based
[6] = test system: 4T1; test: Antitumor activity against mouse 4T1 cells implanted in BALB/c mouse assessed as necrosis at 1 mg, IT administered once daily for 3 consecutive days starting from day 2 post inoculation and measured on day 18 by hematoxylin-eosin staining based assay; type: functional, cell-based; settings: time 18.0 day
[7] = test system: 4T1; test: Cytotoxicity against mouse 4T1 cells assessed as disruption of cells by measuring increase in red fluorescence at 10 uM measured up to 3 hrs by calcein-AM and PI dual staining based live/dead cell viability assay; type: functional; settings: time hrs <=3
[8] = test system: 4T1; test: Induction of morphological changes in mouse 4T1 cells assessed as change in adhesion measured up to 10 mins by bright field 3D live-cell imaging analysis; type: functional, cell-based; settings: time min <=10
[9] = test system: 4T1; test: Antitumor immunity against mouse 4T1 cells implanted in […] mouse assessed as surface translocation of calreticulin at IC75 measured after 6 hrs by DiR/Hoechst 33342 staining based confocal microscopic analysis; type: functional, cell-based
[10] = Stability of the compound assessed as alpha chymotrypsin (unknown origin)-mediated proteolysis by measuring parent compound remaining at 1 mM measured up to 12 hrs by HPLC analysis; type: ADME; settings: human, read-out: Stability
[11] = test system: 4T1; test: Antitumor activity against mouse 4T1 cells implanted in BALB/c mouse assessed as necrosis at 1 mg, IT administered once daily for 3 consecutive days starting from day 2 post inoculation and measured on day 7 by hematoxylin-eosin staining based assay; type: functional, cell-based; settings: time 7.0 day
[12] = test system: B16-F10; test: Antitumor immunity against mouse B16-F10 cells implanted in C57 mouse assessed as release of HMGB-1 at IC75 measured after 6 hrs by Hoechst 33342 staining based confocal microscopic analysis; type: functional, cell-based
[13] = test system: B16-F10; test: Antitumor immunity against mouse B16-F10 cells implanted in C57 mouse assessed as surface translocation of calreticulin at IC75 measured after 6 hrs by DiR/Hoechst 33342 staining based confocal microscopic analysis; type: functional, cell-based
[14] = Hemolytic activity in mouse RBC assessed as hemoglobin release at 20 to 80 uM incubated for 1 hr by absorbance based method; type: tissue-based; settings: erythrocyte, dose 20-80 µM
[15] = test system: 4T1; test: Cytotoxicity against mouse 4T1 cells assessed as increase in extracellular ATP level at 50 uM measured up to 60 mins by luminometric method; type: functional, cell-based; settings: time min <=60
[16] = test system: B16-F10; test: Antitumor activity against mouse B16-F10 cells implanted in C57 mouse assessed as reduction in tumor growth at 1 mg, IT administered once daily for 3 consecutive days starting from day 5 post inoculation; type: functional, cell-based; settings: time 3.0 day
[17] = Toxicity in B16-F10 tumor bearing C57 mouse assessed as change in body weight at 1 mg, IT administered once daily for 3 consecutive days starting from day 5 post inoculation; settings: in vivo, other, 72 h, time 3 day
[18] = test system: B16-F10; test: Antitumor activity against mouse B16-F10 cells implanted in C57 mouse assessed as increase in infiltration of CD4 positive T cells into tumors at 1 mg, IT administered once daily for 3 consecutive days starting from day 5 post inoculation and measured after 10 days by histochemical staining based analysis; type: functional, cell-based; settings: time 10.0 day
[19] = test system: 4T1; test: Antitumor activity against mouse 4T1 cells implanted in BALB/c mouse assessed as inhibition of tumor progression at 1 mg, IT administered once daily for 3 consecutive days starting from day 2 post inoculation; type: functional, cell-based; settings: time 3.0 day
[20] = test system: B16-F10; test: Antitumor activity against mouse B16-F10 cells implanted in C57 mouse assessed as induction of cell necrosis by measuring reduction in live cells at 1 mg, IT administered once daily for 3 consecutive days starting from day 5 post inoculation and measured after 10 to 14 days by hematoxylin-eosin staining based assay; type: functional; settings: time 10-14 day
[21] = test system: 4T1; test: Induction of morphological changes in mouse 4T1 cells assessed as appearance of broken cell particles measured after 5 mins by bright field 3D live-cell imaging analysis; type: functional, cell-based
[22] = test system: 4T1; test: Antitumor activity against mouse 4T1 cells implanted in […] mouse assessed as increase in infiltration of CD4 positive T lymphocytes in tumors at 1 mg, IT administered once daily for 3 consecutive days starting from day 2 post inoculation and measured after 7 days by histochemical staining based analysis; type: functional, cell-based; settings: time 7.0 day
[23] = test system: 4T1; test: Cytotoxicity against mouse 4T1 cells assessed as loss of membrane integrity by measuring increase in LDH release incubated for 24 hrs by LDH release assay; type: functional, cell-based
[24] = test system: 4T1; test: Antitumor activity against mouse 4T1 cells implanted in […] mouse assessed as increase in infiltration of CD8 positive T lymphocytes in tumors at 1 mg, IT administered once daily for 3 consecutive days starting from day 2 post inoculation and measured after 7 days by histochemical staining based analysis; type: functional, cell-based; settings: time 7.0 day
[25] = Stability of the compound assessed as alpha chymotrypsin (unknown origin)-mediated proteolysis by measuring degradation half life at 1 mM measured up to 12 hrs by HPLC analysis; type: ADME; settings: human; for half-life at 1000 µM: alpha-chymotrypsin
[26] = test system: 4T1; test: Cytotoxicity against mouse 4T1 cells assessed as permeabilization in to cell membrane at 10 uM measured up to 3 hrs by calcein-AM and PI dual staining based live/dead cell viability assay; type: functional; settings: time hrs <=3, TDE = time-dependent effect
[27] = Hemolytic activity in mouse RBC assessed as hemoglobin release at 80 uM incubated for 1 hr by absorbance based method relative to control; type: ADME, tissue-based, Erythrocyte; settings: mouse red blood cells, read-out: Activity
[28] = test system: B16-F10; test: Antitumor immunity against mouse B16-F10 cells implanted in anti-CD8 positive antibody stimulated C57 mouse assessed as inhibition of tumor progression at 1 mg, IT administered once daily for 3 consecutive days starting from day 7 and measured after 20 days; type: functional, cell-based; settings: time 20.0 day
[29] = test system: B16-F10; test: Antitumor immunity against mouse B16-F10 cells implanted in anti-CD8 positive antibody stimulated C57 mouse assessed as inhibition of tumor progression at 1 mg, IT administered once daily for 3 consecutive days starting from day 7 and measured after 40 days; type: functional, cell-based; settings: time 40.0 day

Row | SMILES | IC50 [1] [µM] | IC50 [2] [µM] | Activity [3] | Activity [4] | Activity [6] | Activity [7] | Activity [11] | Activity [16] | Activity [17] | Activity [18] | Activity [19] | Activity [20] | Activity [22] | Activity [23] | Activity [24] | also measured
1 | CC(C)C[C@H](NC(=O)CN)C(=O)N[C@@H](CC(C)C)C(=O)N[C@@H](CCCCN)C(=O)N[C@@H](CCCNC(=N)N)C(=O)N[C@@]1(C)CCC/C=C\CCC[C@@](C)(C(N)=O)NC(=O)[C@H](CC(C)C)NC(=O)[C@H]([C@@H](C)O)NC(=O)[C@H](CCCCN)NC1=O (H-GLLKR[S5]KTL[S5]-NH2; staple (Z) 6-10) | 31.2 | 66.1 | – | – | – | – | – | – | – | – | – | – | – | – | – | –
2 | CC[C@H](C)[C@@H]1NC(=O)[C@@](C)(NC(=O)[C@H](CCCCN)NC(=O)[C@H](CC(C)C)NC(=O)[C@H](CC(C)C)NC(=O)CN)CCC/C=C\CCC[C@@](C)(C(=O)N[C@@H](CC(C)C)C(N)=O)NC(=O)[C@H]([C@@H](C)O)NC(=O)[C@H](CCCCN)NC1=O (H-GLLK[S5]IKT[S5]L-NH2; staple (Z) 5-9) | 5.15 | 15.7 | – | – | – | – | – | – | – | – | – | – | – | – | – | –
3 | CC[C@H](C)[C@@H]1NC(=O)[C@H](CCCNC(=N)N)NC(=O)[C@@](C)(NC(=O)[C@H](CC(C)C)NC(=O)[C@H](CC(C)C)NC(=O)CN)CCC/C=C\CCC[C@@](C)(C(=O)N[C@@H](CC(C)C)C(=O)N[C@@H](CC(C)C)C(N)=O)NC(=O)[C@H](CCCCN)NC1=O (H-GLL[S5]RIK[S5]LL-NH2; staple (Z) 4-8) | 33.5 | 59.7 | – | – | – | – | – | – | – | – | – | – | – | – | – | –
4 | CC[C@H](C)[C@@H]1NC(=O)[C@H](CCCNC(=N)N)NC(=O)[C@H](CCCCN)NC(=O)[C@@](C)(NC(=O)[C@H](CC(C)C)NC(=O)CN)CCC/C=C\CCC[C@@](C)(C(=O)N[C@H](C(=O)N[C@@H](CC(C)C)C(=O)N[C@@H](CC(C)C)C(N)=O)[C@@H](C)O)NC1=O (H-GL[S5]KRI[S5]TLL-NH2; staple (Z) 3-7) | 4.02 | 16.1 | Active | Non-Toxic | inactive | Active | Active | Active | Non-Toxic | Active | inactive | Active | inactive | Dose-Dependent Effect | inactive | Activity [5]: Active; Activity [8]: Active; Activity [9]: Active; remaining at 12 h, 1000 µM [10]: > 60%; Activity [12]: Active; Activity [13]: Active; Activity [14]: Toxic; Activity [15]: Active; Activity [21]: Active; Stability ([25]; 12 h, 1000 µM): Stable
5 | CC[C@H](C)[C@@H]1NC(=O)[C@H](CCCNC(=N)N)NC(=O)[C@H](CCCCN)NC(=O)[C@@](CC(C)C)(NC(=O)[C@H](CC(C)C)NC(=O)CN)CCC/C=C\CCC[C@@](CCCCN)(C(=O)N[C@H](C(=O)N[C@@H](CC(C)C)C(=O)N[C@@H](CC(C)C)C(N)=O)[C@@H](C)O)NC1=O (H-GL[X1]KRI[X2]TLL-NH2; staple (Z) 3-7) | 6.57 | 30.4 | Active | Non-Toxic | inactive | – | Active | Active | Non-Toxic | Active | inactive | Active | inactive | – | inactive | Activity [26]: Tde; hemolysis at 1 h, 80 µM [27]: < 10%; Activity [28]: inactive; Activity [29]: inactive
6 | CC[C@H](C)[C@H](NC(=O)[C@]1(C)CCC/C=C\CCCC(C)(N)C(=O)N[C@@H](CC(C)C)C(=O)N[C@@H](CC(C)C)C(=O)N[C@@H](CCCCN)C(=O)N1)C(=O)N[C@@H](CCCCN)C(=O)N[C@H](C(=O)N[C@@H](CC(C)C)C(=O)N[C@@H](CC(C)C)C(N)=O)[C@@H](C)O (stereo partly drawn) (H-[ξαMeNle(6-ylidene)]LLK[S5]IKTLL-NH2; staple (Z) 1-5) | 5.15 | 15.1 | – | – | – | – | – | – | – | – | – | – | – | – | – | Activity [14]: Toxic
7 | CC[C@H](C)[C@H](NC(=O)[C@H](CCCNC(=N)N)NC(=O)[C@H](CCCCN)NC(=O)[C@H](CC(C)C)NC(=O)[C@H](CC(C)C)NC(=O)CN)C(=O)N[C@@H](CCCCN)C(=O)N[C@H](C(=O)N[C@@H](CC(C)C)C(=O)N[C@@H](CC(C)C)C(N)=O)[C@@H](C)O [ANOPLIN] (H-GLLKRIKTLL-NH2) | 191 | > 400 | Active | Non-Toxic | – | inactive | – | inactive | Non-Toxic | Active | – | – | inactive | Dose-Dependent Effect | inactive | half-life at 1000 µM [25]: 12 min
8 | NCCCC[C@H](NC(=O)[C@@H](NC(=O)[C@H](Cc1c[nH]c2ccccc12)NC(=O)[C@H](CCCCN)NC(=O)[C@H](CCCCN)NC(=O)[C@H](Cc1c[nH]c2ccccc12)NC(=O)[C@H](Cc1c[nH]c2ccccc12)NC(=O)[C@H](CCCCN)NC(=O)[C@@H](N)CCCCN)C(c1ccccc1)c1ccccc1)C(N)=O [RUXOTEMITIDE] (H-KKWWKKW[Dip]K-NH2) | – | – | Active | Non-Toxic | inactive | Active | Active | Active | Non-Toxic | Active | inactive | Active | inactive | Dose-Dependent Effect | inactive | Activity [15]: Active; half-life at 1000 µM [25]: 34 min

— ChEMBL document CHEMBL5029142, “Stapled Wasp Venom-Derived Oncolytic Peptides with Side Chains Induce Rapid Membrane Lysis and Prolonged Immune Responses in Melanoma” (J Med Chem, 2021)
